Reference: patent publication US9815815B2, “Non-selective kinase inhibitors” (GILEAD SCIENCES, INC., priority 2013, dated 2017)

Tests used:
AKT = test: NanoPro immunoassay pAKT/AKT in lung extracts, MCT+PN model; type: in vivo, rat
[1] = Body weight of treated subjects; type: in vivo, rat; conditions: treated vs. vehicle groups
PDGFRalpha = PDGFRalpha (Homo sapiens, UniProt P16234); test: biochemical
Protocol: (§1) In vitro kinase assay. A Z-lyte kinase assay was performed to determine the inhibition of PDGFRalpha and PDGFRbeta mediated phosphorylation by PK10453 (Structure 2). Ten point titration curves were modeled to calculate the IC50 (Invitrogen Select Screen®).

PDGFRbeta = PDGFRbeta (Homo sapiens, UniProt P09619); test: biochemical
Sequence of PDGFRbeta (P09619 33-1106): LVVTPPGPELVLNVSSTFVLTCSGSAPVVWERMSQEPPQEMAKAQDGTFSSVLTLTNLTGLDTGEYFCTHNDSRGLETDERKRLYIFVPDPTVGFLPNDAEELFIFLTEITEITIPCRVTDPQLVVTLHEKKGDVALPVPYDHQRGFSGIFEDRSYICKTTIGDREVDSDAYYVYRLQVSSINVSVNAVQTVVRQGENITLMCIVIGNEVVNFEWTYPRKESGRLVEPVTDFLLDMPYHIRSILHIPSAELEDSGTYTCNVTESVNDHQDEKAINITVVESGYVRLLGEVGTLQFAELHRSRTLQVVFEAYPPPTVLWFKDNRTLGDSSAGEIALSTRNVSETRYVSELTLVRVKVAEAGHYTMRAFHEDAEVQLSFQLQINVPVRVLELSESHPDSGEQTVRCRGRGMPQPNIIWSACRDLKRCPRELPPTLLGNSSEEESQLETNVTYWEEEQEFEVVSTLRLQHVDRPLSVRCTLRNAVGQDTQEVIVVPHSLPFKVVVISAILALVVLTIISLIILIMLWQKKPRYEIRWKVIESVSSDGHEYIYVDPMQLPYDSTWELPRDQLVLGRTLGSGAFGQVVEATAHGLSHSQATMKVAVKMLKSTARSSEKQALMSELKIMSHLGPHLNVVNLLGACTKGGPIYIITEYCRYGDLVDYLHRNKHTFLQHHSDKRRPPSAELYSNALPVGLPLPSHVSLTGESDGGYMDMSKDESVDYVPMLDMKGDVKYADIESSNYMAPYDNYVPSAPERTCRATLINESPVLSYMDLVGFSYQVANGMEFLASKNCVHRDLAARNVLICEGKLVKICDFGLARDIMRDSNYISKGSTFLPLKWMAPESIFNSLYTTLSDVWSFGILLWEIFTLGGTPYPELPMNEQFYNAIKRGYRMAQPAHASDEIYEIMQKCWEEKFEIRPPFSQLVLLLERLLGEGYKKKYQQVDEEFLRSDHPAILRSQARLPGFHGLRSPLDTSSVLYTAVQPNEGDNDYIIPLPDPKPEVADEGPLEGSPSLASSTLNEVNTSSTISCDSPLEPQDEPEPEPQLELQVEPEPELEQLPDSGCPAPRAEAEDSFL
Protocol: as §1

rat MCT model [2] = test: PK10453 dose response study in the rat MCT model; type: in vivo
Protocol: Efficacy study in the rat MCT model—PK10453 (Structure 2) dose response study in the rat MCT Model. Male Sprague Dawley rats received MCT 60 mg/kg IPMCT, and after 3 weeks, PK10453 (Structure 2) or vehicle control were administered by inhalation. Four groups were studied: vehicle control (4 min exposure) and three treatment groups of PK10453 (Structure 2) with exposure times 2 min (D2), 4 min (D4), or 8 min (D8) three times a day. These regimens were administered for two weeks. The vehicle consisted of aerosolized 1M tosylic acid neutralized with ammonia vapor as described above. The pH of a solution prepared by dissolving captured aerosol particles in water was measured for every dose and was consistently in the range of 5.5-6.0. At the end of the study, the RV systolic pressure was measured, and the heart chambers dissected and weighed.

rat MCT+PN model = test: Telemetry study of PA pressure in the rat MCT+PN model; type: in vivo; conditions: by inhalation
Protocol: Efficacy study in the rat MCT+PN model. Pneumonectomy and implantation of a TRM53P telemetry monitor in the pulmonary artery (Telemetry Research, New Zealand and ADlnstruments, Colorado) was carried out in rats. Two weeks after MCT, PK10453 (Structure 2) was administered three times daily for 1 week. […] Sampling of PA pressure was performed 5 min before each morning dose in ambulatory animals in room air (estimated atmospheric pressure 716 mm Hg based on elevation of animal facility). […] Telemetry data was obtained for 10 min daily before each morning dose for this protocol.

[3] = system: PDGFBB stimulated AKT phosphorylation; test: In cell Western (ICW), PDGFBB stimulated AKT phosphorylation in human fetal lung fibroblasts; type: cell-based; conditions: comparison in words
Protocol: In cell Western (ICW). […] HLFs were maintained in subculture at no more than 6 passages in DMEM with 5% FBS and 4 mM Glutamax at 37° C., 5% CO2. HLFs were plated and grown to 70-80% confluence in 96 well plates then serum-starved for 48 hours. […] Antibodies were detected using IRDye 680LT goat anti-mouse IgG and IRDye 800W goat a-rabbit IgG conjugated antibodies. After washing, the signal was quantified using an Odyssey Infrared Imaging System (LI-COR). Phosphoprotein signal (800 nm) was normalized to total protein signal (700 nm) acquired from each well and experimental duplicates on same plate were averaged and reported.

ERK1/2 = test: NanoPro immunoassay pERK1/2 in lung homogenates, MCT+PN model; type: in vivo, rat; conditions: D4 and D8 groups compared to vehicle
Text: (§2) Histology and morphometric analysis. At the end of the study, the heart and lungs were removed from ventilated animals under general anesthesia. Heparinized saline was infused under pressure through the main pulmonary artery. The right upper lobe was immediately tied off and placed in liquid nitrogen for Western blot and NanoPro 100 ™ assay analysis. The heart was removed, and the RV free wall, interventricular septum and LV free wall dissected and weighed. Buffered formalin (10%) was infused under pressure both through the pulmonary artery and the trachea. Morphometric analysis was performed on H&E stained formalin fixed tissue sectioned at 8 μm. The media area and lumen area of pulmonary arterioles were measured with Image J software by a technician blinded to treatment group. Measurements were made on 20 pulmonary arterioles per section. The ratio of the lumen area to the total media area was determined This ratio normalizes the variation in total pulmonary arteriole area. […]
(§3) NanoPro Immunoassay™. Relative differences in phosphorylated ERK1/2 and STAT isoforms were measured with a NanoPro100™ immunoassay system (Protein Simple/Cell Biosciences, CA). […]

rat MCT model [4] = conditions: 8 min inhalation 3x/day, two weeks
Protocol: At the end of the study RVSP pressure was measured; lung and heart fixed in formalin. For measurement of RVSP animals were sedated with isoflurane, intubated via a tracheostomy, and ventilated with a TOPOVENT pressure regulated ventilator (peak inspiratory pressure 18 cm H2O, PEEP 5 cm). After sternotomy, a Scisense high fidelity catheter inserted via the RV apex.
Histology and morphometric analysis. At the end of the study, the heart and lungs were removed from ventilated animals under general anesthesia. Heparinized saline was infused under pressure through the main pulmonary artery. […] The heart was removed, and the RV free wall, interventricular septum and LV free wall dissected and weighed. Buffered formalin (10%) was infused under pressure both through the pulmonary artery and the trachea. Morphometric analysis was performed on H&E stained formalin fixed tissue sectioned at 8 μm. The media area and lumen area of pulmonary arterioles were measured with Image J software by a technician blinded to treatment group. Measurements were made on 20 pulmonary arterioles per section. The ratio of the lumen area to the total media area was determined This ratio normalizes the variation in total pulmonary arteriole area. […] Briefly, pre-capillary arterioles were assigned grade 0 for no evidence of neointimal lesions, grade 1 for less than 50% luminal occlusion, and grade 2 for greater than 50% occlusion.

[5] = system: PDGFBB stimulated phosphorylation of ERK1 and ERK2; test: PDGFBB stimulated phosphorylation of ERK1 and ERK2 in human fetal lung fibroblasts; type: cell-based
[6] = system: PDGFAA stimulated phosphorylation of ERK1 and ERK2; test: PDGFAA stimulated phosphorylation of ERK1 and ERK2 in human fetal lung fibroblasts; type: cell-based; conditions: 1 uM
STAT3 = test: NanoPro immunoassay pSTAT3/STAT3 in lung extracts, MCT+PN model; type: in vivo, rat; conditions: D4 and D8 groups compared to vehicle
Text: as §2, §3

Sequence of PDGFRalpha (P16234 24-1089): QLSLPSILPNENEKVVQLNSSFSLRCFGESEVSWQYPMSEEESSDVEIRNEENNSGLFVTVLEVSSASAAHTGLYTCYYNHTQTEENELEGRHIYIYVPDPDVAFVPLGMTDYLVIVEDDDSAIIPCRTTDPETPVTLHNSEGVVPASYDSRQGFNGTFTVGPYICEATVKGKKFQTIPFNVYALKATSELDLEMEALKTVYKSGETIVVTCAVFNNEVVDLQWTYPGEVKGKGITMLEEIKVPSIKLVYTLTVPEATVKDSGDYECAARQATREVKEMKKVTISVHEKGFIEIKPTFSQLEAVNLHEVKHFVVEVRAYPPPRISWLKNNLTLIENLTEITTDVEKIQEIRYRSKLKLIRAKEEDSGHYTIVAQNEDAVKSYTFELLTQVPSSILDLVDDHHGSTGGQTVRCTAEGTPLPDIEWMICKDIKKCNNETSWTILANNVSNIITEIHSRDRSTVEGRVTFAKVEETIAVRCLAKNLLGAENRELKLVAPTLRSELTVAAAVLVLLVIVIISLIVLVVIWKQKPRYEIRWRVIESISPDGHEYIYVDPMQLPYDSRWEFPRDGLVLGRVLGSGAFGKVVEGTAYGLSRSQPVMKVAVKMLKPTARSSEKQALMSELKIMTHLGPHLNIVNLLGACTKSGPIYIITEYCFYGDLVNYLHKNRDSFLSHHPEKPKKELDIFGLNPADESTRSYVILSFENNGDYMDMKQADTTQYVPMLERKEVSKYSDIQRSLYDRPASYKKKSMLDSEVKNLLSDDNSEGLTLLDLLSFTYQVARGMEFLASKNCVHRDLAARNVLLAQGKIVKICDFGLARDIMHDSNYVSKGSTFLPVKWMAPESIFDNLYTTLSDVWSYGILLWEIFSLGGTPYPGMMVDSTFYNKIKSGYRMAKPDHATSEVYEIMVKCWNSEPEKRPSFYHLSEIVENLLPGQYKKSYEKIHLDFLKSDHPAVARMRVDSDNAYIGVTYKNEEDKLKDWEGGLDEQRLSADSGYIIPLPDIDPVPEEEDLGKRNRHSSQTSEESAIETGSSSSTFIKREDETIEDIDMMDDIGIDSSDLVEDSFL

COc1cc(-c2cncc(N[C@@H](C)c3cccc(NC(=O)c4cncc(C)c4)c3)n2)ccc1O [PK10453, (S)-N-(3-(1-((6-(4-hydroxy-3-methoxyphenyl)pyrazin-2yl)amino)ethyl)phenyl)-5-methylnicotinamide]
pAKT(Thr308)/AKT ratio in lung extracts (AKT; D4, D8 vs vehicle): not significantly different | pAKT(Ser473)/AKT ratio in lung extracts (AKT; treated vs vehicle): significant reduction | body weight, in words [1]: trend to a slower rate of decline in body weight | IC50 (PDGFRalpha): 35 nM | IC50 (PDGFRbeta): 10.1 nM | reduction in RVSP compared to the vehicle treated group (rat MCT model [2]; D4): 44% | reduction in RVSP compared to the vehicle treated group (rat MCT model [2]; D8): 54% | RV hypertrophy, ratio (RV+IVS)/LV weight (rat MCT model [2]; inhalation, two weeks, in words): significant reduction | decrease of RV systolic pressure (rat MCT model [2]; rat MCT model, inhalation): 50% | efficacy in the MCT+PN model, in words (rat MCT+PN model): prevented the progression of PAH | IC50 for inhibiting PDGFBB stimulated AKT phosphorylation, compared to imatinib [3]: lower IC50 concentrations compared to imatinib | pERK1/ERK1 in lung homogenates (ERK1/2): significant reductions | ppERK1/ERK1 in lung homogenates (ERK1/2): significant reductions | End systolic volume (rat MCT model [4]): 99.5 ± 10 µL | PDGFBB stimulated ppERK1 formation ([5]; 1 uM): effective | decreasing PDGF BB stimulated ppERK1 and ppERK2, compared to imatinib ([5]; 1 uM and 10 uM): more effective | decreasing PDGF AA stimulated ppERK1 and ppERK2 formation [6]: equally effective | pSTAT3/STAT3 ratio (STAT3): significant reduction
